Five compounds from ChEMBL document CHEMBL1649095, “A κ Opioid Pharmacophore Becomes a Spinally Selective κ-δ Agonist When Modified with a Basic Extender Arm” (2011) can be followed below.

The test system of experiment [1] is Mus musculus. The experiment in a line: Antinociceptive activity in icv dosed HSD:ICR(CD1) mouse by tail flick test. Format: functional. In general terms: Hot-plate and tail-flick tests time the reaction to a heat stimulus.
Experiment [2] deals with Mus musculus. The experiment in a line: Potency index, ratio of antinociceptive ED50 in icv dosed HSD:ICR(CD1) mouse to antinociceptive ED50 in intrathecally dosed HSD:ICR(CD1) mouse. It is filed as functional.
In experiment [3] the test system is Mus musculus. The experiment in a line: Antinociceptive activity in intrathecally dosed HSD:ICR(CD1) mouse by tail flick test. Format: functional.
The target of experiment [4] is Opioid receptors; delta & kappa (Homo sapiens) (UniProt P41145+P41143). The experiment in a line: Agonist activity at kappa/delta opioid receptor expressed in HEK293 cells coexpressing chimeric Giiq protein assessed as stimulation of intracellular calcium. It is filed as functional, cell-based.
Experiment [5] has as its system Mus musculus. The experiment in a line: Ratio of antinociceptive ED80 in intrathecally dosed HSD:ICR(CD1) mouse coadministered with 5 nmol delta opioid receptor antagonist NTI to ED80 in intrathecally dosed HSD:ICR(CD1) mouse. Format: functional.
Experiment [6] has as its system HEK293. Briefly: Selectivity for kappa/delta opioid receptor expressed in HEK293 cells over mu opioid receptor expressed in HEK293 cells by intracellular calcium release assay. Format: cell-based. In general terms: Calcium assays in cells follow changes in intracellular calcium, usually with a dye or a luminescent sensor.
For experiment [7], the system named is Mus musculus. Briefly: Ratio of antinociceptive ED80 in intrathecally dosed HSD:ICR(CD1) mouse coadministered with 2.5 nmol kappa opioid receptor antagonist norBNI to ED80 in intrathecally dosed HSD:ICR(CD1) mouse. It is filed as functional.
Experiment [8] concerns HEK293. The experiment in a line: Selectivity for kappa/delta opioid receptor expressed in HEK293 cells over kappa opioid receptor expressed in HEK293 cells by intracellular calcium release assay. It is filed as cell-based.
In experiment [9] the test system is HEK293. The experiment in a line: Selectivity for kappa/delta opioid receptor expressed in HEK293 cells over mu/delta opioid receptor expressed in HEK293 cells by intracellular calcium release assay. Format: cell-based.
Experiment [10] relates to HEK293. Briefly: Selectivity for kappa/delta opioid receptor expressed in HEK293 cells over kappa/mu opioid receptor expressed in HEK293 cells by intracellular calcium release assay. It is filed as cell-based.

Calls of active or inactive are those of the source. The rule behind the calls is not given here.

Opioid receptors; delta & kappa (Homo sapiens), sequence (P41143 whole entry, looked up): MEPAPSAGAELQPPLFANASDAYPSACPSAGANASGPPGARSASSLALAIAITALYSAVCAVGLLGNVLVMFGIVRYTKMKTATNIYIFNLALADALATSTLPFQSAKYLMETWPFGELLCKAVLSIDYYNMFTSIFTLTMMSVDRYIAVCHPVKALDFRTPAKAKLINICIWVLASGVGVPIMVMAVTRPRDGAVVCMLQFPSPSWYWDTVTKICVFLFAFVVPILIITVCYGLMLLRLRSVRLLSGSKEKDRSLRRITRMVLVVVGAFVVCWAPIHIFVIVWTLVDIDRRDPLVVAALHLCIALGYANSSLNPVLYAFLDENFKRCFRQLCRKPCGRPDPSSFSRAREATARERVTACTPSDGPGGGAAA
Opioid receptors; delta & kappa (Homo sapiens), sequence (P41145 whole entry, looked up): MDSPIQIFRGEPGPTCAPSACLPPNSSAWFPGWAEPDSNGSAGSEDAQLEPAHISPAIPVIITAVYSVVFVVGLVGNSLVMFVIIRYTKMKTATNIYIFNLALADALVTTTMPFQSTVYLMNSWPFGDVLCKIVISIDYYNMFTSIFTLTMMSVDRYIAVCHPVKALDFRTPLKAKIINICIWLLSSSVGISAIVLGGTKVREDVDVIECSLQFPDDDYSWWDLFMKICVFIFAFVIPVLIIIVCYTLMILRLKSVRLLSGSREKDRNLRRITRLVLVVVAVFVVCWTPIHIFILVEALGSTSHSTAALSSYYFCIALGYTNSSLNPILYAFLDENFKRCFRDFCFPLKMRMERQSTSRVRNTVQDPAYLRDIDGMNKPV

With `CN(C(=O)Cc1ccc(Cl)c(Cl)c1)[C@H](CN1CCCC1)c1cccc(NC(=O)CNC(=O)CNC(=O)COCC(=O)NCCCNC=O)c1`, the figures for the ED50 in the experiment with Mus musculus [1] and in the experiment on Mus musculus [3] were 0.47 nmol and 0.02 nmol, respectively. Further, the “Ratio ED50” value with Mus musculus [2] is 23.44.
For the compound `CNCCNC(=O)COCC(=O)NCC(=O)NCC(=O)NCC(=O)Nc1cccc([C@@H](CN2CCCC2)N(C)C(=O)Cc2ccc(Cl)c(Cl)c2)c1`, the ED50 with Mus musculus [1] is listed as 0.4 nmol; in the experiment on Mus musculus [3], 0.035 nmol. Also, in the experiment on Mus musculus [2], the “Ratio ED50” value worked out at 11.43.
For `CNCCCNC(=O)COCC(=O)NCC(=O)NCC(=O)Nc1cccc([C@@H](CN2CCCC2)N(C)C(=O)Cc2ccc(Cl)c(Cl)c2)c1`, in experiment [4], the outcome was Active. The Ratio was found to be 9.97 with Mus musculus [5] and 28.5 in the experiment with Mus musculus [7]. Also, the Selectivity ratio with HEK293 [6], in the experiment on HEK293 [8], in the experiment with HEK293 [9] and in the experiment on HEK293 [10] was 66 throughout. Also, the ED50 in the experiment with Mus musculus [1] is 0.58 nmol; in the experiment with Mus musculus [3], 0.0045 nmol. The “Ratio ED50” value with Mus musculus [2] came to 130.91.
Take `CNCCCCNC(=O)COCC(=O)Nc1cccc([C@@H](CN2CCCC2)N(C)C(=O)Cc2ccc(Cl)c(Cl)c2)c1`: the ED50 in the experiment with Mus musculus [1] was 0.52 nmol; in the experiment with Mus musculus [3], 0.15 nmol. In addition, the “Ratio ED50” value in the experiment with Mus musculus [2] was determined as 3.45.
As for `CNCCCCNC(=O)COCC(=O)NCC(=O)Nc1cccc([C@@H](CN2CCCC2)N(C)C(=O)Cc2ccc(Cl)c(Cl)c2)c1`, the ED50 with Mus musculus [1] is listed as 0.48 nmol; in the experiment with Mus musculus [3], 0.17 nmol. In addition, the “Ratio ED50” value in the experiment on Mus musculus [2] is 2.81.
